Consider four molecules from ChEMBL document CHEMBL1201862, “PubChem BioAssay data set” (2004).

Molecules are shown by their SMILES.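 Tested at 5 concentrations; 48 h exposure; 96-well plates; endpoints linearly interpolated, else capped at highest concentration. GI50 is the concentration that inhibits growth by half.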 Active and inactive are the calls of the source. Rule as the data show it: active = GI50 up to about 1.1 µM and inactive = higher. Bounds are passed on as bounds.

Among the test systems are 786-0; A498; BT-549; COLO 205; HCC 2998; HCT-15; HL-60; HOP-62; HT-29; IGROV-1; NCI-H23; NCI-H460; PC-3; RPMI-8226; SF-295; SK-OV-3; SR; T47D; U-251; UO-31.
Experiment in all cases: NCI tumour cell line growth inhibition, 48 h

For `CN(C)CCCNc1ccnc2cccc([N+](=O)[O-])c12`, the GI50 in the test on 786-0 is 14.1 µM (inactive); in the test on A498, 15.5 µM (inactive); with BT-549, 21.8 µM (inactive); in the test on COLO 205 it was 3.73 µM (inactive); in the test on HCC 2998, 13.3 µM (inactive); in the test with HCT-15, 8.41 µM. Further, the GI50 in the test on HL-60 was 26.7 µM (inactive); in the test on HOP-62 it was 18.1 µM (inactive); with HT-29, 12.1 µM (inactive); in the test on IGROV-1 it was 12.1 µM (inactive); with NCI-H23, 5.9 µM (inactive); in the test on NCI-H460, 6.5 µM (inactive). In addition, the GI50 in the test with PC-3 is 14.3 µM (inactive); in the test on RPMI-8226, 27.3 µM (inactive); in the test with SF-295, 13.3 µM (inactive); with SK-OV-3, 2.52 µM (inactive); in the test with SR, > 100 µM (inactive); in the test with T47D, 34.3 µM (inactive). Also, the GI50 in the test with U-251 is 15.7 µM (inactive); with UO-31, 13.3 µM (inactive).
On to `COc1cc(CCNC2=CC(=O)c3cccnc3C2=O)ccc1O`, for which the GI50 with 786-0 is 1.37 µM (inactive); in the test with A498, 2.6 µM (inactive); with BT-549, 1.37 µM (inactive); in the test with COLO 205, 1.6 µM (inactive); in the test with HCC 2998 it was 1.73 µM (inactive); with HCT-15, 1.18 µM. Also, the GI50 in the test with HL-60 is 2.5 µM (inactive); in the test with HOP-62, 1.32 µM (inactive); with HT-29 it was 1.97 µM (inactive); with IGROV-1 it was 1.44 µM (inactive); with NCI-H23, 0.809 µM (active); with NCI-H460, 1.09 µM (active). The GI50 in the test on PC-3 is 2.76 µM (inactive); in the test on RPMI-8226, 1.92 µM (inactive); with SF-295, 1.32 µM (inactive); with SK-OV-3, 2.52 µM (inactive); with SR it was 1.87 µM (inactive); with T47D, 8.51 µM (inactive). Further, the GI50 is 0.766 µM (active) with U-251 and 0.916 µM (active) in the test with UO-31.
Consider `O=C1/C(=C/c2ccccc2)CCC/C1=C\c1ccc(O)c(CN2CCCCC2)c1`, for which the GI50 in the test on 786-0 was 1.69 µM (inactive); in the test on A498 it was 5.37 µM (inactive); in the test with BT-549, 2.84 µM (inactive); with COLO 205 it was 5.89 µM (inactive); with HCC 2998, 2.39 µM (inactive); with HCT-15, 1.78 µM. In addition, the GI50 in the test on HL-60 was 3.49 µM (inactive); with HOP-62, 13.5 µM (inactive); with HT-29, 1.77 µM (inactive); in the test with IGROV-1, 3.72 µM (inactive); in the test on NCI-H23, 3.96 µM (inactive); in the test with NCI-H460, 4.66 µM (inactive). In addition, the GI50 with PC-3 was 4.56 µM (inactive); in the test with RPMI-8226, 3.27 µM (inactive); in the test with SF-295, 5.35 µM (inactive); in the test with SK-OV-3, 9.1 µM (inactive); in the test with SR it was 1.05 µM (active); in the test on T47D, 4.88 µM (inactive). In addition, the GI50 was 3.17 µM (inactive) in the test with U-251 and 6.92 µM (inactive) with UO-31.
Consider `O=C1c2c(nc3ccccc3c2-c2ccccc2)CN1Nc1ccccn1`, for which the GI50 was > 74.5 µM (inactive) with 786-0; 5.32 µM (inactive) with A498; > 79.1 µM (inactive) with BT-549; > 100 µM (inactive) in the test with COLO 205; > 100 µM (inactive) in the test on HCC 2998; > 75.5 µM in the test on HCT-15. The GI50 in the test with HL-60 is 97.9 µM (inactive); in the test on HOP-62, 72.6 µM (inactive); in the test on HT-29 it was > 100 µM (inactive); with IGROV-1 it was 81.8 µM (inactive); in the test on NCI-H23 it was 86.5 µM (inactive); with NCI-H460 it was 40.6 µM (inactive). For the same molecule, the GI50 was > 89.7 µM (inactive) in the test with PC-3; 76.9 µM (inactive) with RPMI-8226; 60.1 µM (inactive) in the test with SF-295; 98.2 µM (inactive) with SK-OV-3; 58.1 µM (inactive) in the test on SR; > 68.4 µM (inactive) in the test on T47D. For the same molecule, the results for the GI50 in the test on U-251 and in the test with UO-31 were 66.7 µM (inactive) and 13.8 µM (inactive), respectively.
